According to patent US6727387B2, “Quaternary ammonium salts having a tertiary alkyl group” (Rohm and Haas Company, priority 2001, dated 2004):

Experiments:
[1] = system: Pseudomonas aeruginosa 13388; assay: High resolution minimum inhibitory concentration (HRMIC) test, Gram-negative bacterium; assay type: cell-based; details: for Activity against Gram-negative test organism (in words): HRMIC test; for MIC: M9GY, 10^6 CFU/ml, 30° C., 24 hours, read-out: MIC (ppm) Average, Gram-negative
Method: (§1) The five alkylation products from Route B, as described in Table 1, were tested for their ability to inhibit the growth of a Gram-positive bacterium, Staphylococcus aureus 6538 and a Gram-negative bacterium, Pseudomonas aeruginosa 13388 in a high resolution minimum inhibitory concentration (HRMIC) test. Two of the compounds showing biological activity were also tested for activity against sulfate-reducing bacteria (SRB). HR MIC Test Method: Varying amounts of test compound dissolved in DMSO were added to […] in a 96-well microtiter plate. Ten-fold serial dilutions were performed on a Biomek 2000 Workstation to obtain a range of closely spaced concentrations of biocide as illustrated in Table 2. A cell suspension of either Pseudomonas aeruginosa 13388 or Staphylococcus aureus 6538, adjusted to provide 10^6 CFU/ml in each well, was added to each microtiter plate. Kathon® WT biocide and Hyamine® 3500 biocide (dimethyl benzyl ammonium chloride) were included in the test for comparison. The microtiter plates were incubated at 30° C. for 24 hours and were then checked for the presence or absence of microbial growth in each well. […] Each compound was evaluated in duplicate on three separate days. [table]

[2] = system: Staphylococcus aureus 6538; assay: High resolution minimum inhibitory concentration (HRMIC) test, Gram-positive bacterium; assay type: cell-based; details: for Activity against Gram-positive test organism (in words): HRMIC test; for MIC: M9GY, 10^6 CFU/ml, 30° C., 24 hours, read-out: MIC (ppm) Average, Gram-positive
Method: as §1

| Structure (SMILES) | Activity against Gram-negative test organism (in words) [1] | MIC [1] | Activity against Gram-positive test organism (in words) [2] | MIC [2] |
| --- | --- | --- | --- | --- |
| CC(C)(C)CC(C)(C)[N+](C)(C)C.[I-] [TOA I^−, N,N,N-Trimethyl t-octylammonium iodide] | showed no activity | > 1000 µg/mL | showed no activity | > 1000 µg/mL |
| CC(C)(C)CC(C)(C)[N+](C)(C)C.[Br-] [TOA Br^−, N,N,N-Trimethyl t-octyl ammonium bromide] | showed no activity | > 1000 µg/mL | showed no activity | > 1000 µg/mL |
